Reference: patent US6776996B2, “Pesticidal matrices” (priority 1997, dated 2004)

Test system: H. virescens
Test: Field evaluation against tobacco budworms on tobacco in North Carolina
Assay type: in vivo
Settings: 0.75 lb of ai/acre
Description: A field evaluation is conducted on tobacco grown near Clayton, N.C. A wettable powder composition of this invention (composition 46) at 2×10^11, 5×10^11, and 8×10^11 bodies/acre, Bacillus thuringiensis (DIPEL® 2X, Abbott Laboratories) at 1.0 lb wettable powder (WP)/acre, and acephate (ORTHENE® 75SP, available from Valent USA, Walnut Creek, Calif.) at 0.75 lb active ingredient (ai)/acre are compared for efficacy against H. virescens. Biological materials are suspended in water containing an insect gustatory stimulant (PHEAST® available from […], Fresno, Calif.); aqueous dilutions of acephate contained no PHEAST®. Treatments and untreated check are replicated four times (small plots) in a randomized complete block design. By using fine-hair brushes, 1- to 2-day old laboratory-reared H. virescens are placed on the underside of leaves in each plot. Natural infestation of H. virescens also occurred at the test site. Treatments are applied to tobacco about 2 hours before each artificial larval infestation on days 1 and 8. Treatments are applied with a tractor-mounted, CO2-pressurized boom sprayer which is calibrated to deliver 25 gallons/acre through a single D2-33 nozzle centered over each tobacco row. Boom pressure during application is 60 lb/in^2.
At 2 and 5 days after first application and 5 and 9 days after second application, live H. virescens are counted on 20 plants in each plot. Additionally, visual estimate of leaf damage caused by larval feeding is made 14 days after the second application using the rating scale shown below.

COP(=O)(NC(C)=O)SC (centres unmarked) [Acephate, acephate]
Mean Number of Live Larvae per 20 Plants (Day of Test 3): 6.0
Mean Number of Live Larvae per 20 Plants (Day of Test 8): 5.8
Mean Number of Live Larvae per 20 Plants (Day of Test 13): 1.2
Mean Number of Live Larvae per 20 Plants (Day of Test 17): 0.8
Mean Plant Injury on Day 22 of Test (rating scale 0 (No Damage) to 4 (Severe Damage)): 0.2
